What was measured:
Format in all cases: in vivo
[1] = tested on: barnyardgrass (Echinochloa crus-galli); assay: Test G Pre-Emergence Protocol; conditions: Echinochloa crus-galli, pre-emergence, 312 h, evaluated after 13 days; for pest or weed control at 15.625 g/ha: 15.625 g ai/ha; for pest or weed control at 15.625 g/ha / pest or weed control at 250 g/ha: read-out: Barnyardgrass damage rating (100=total damage to plant; 0=no damage to plant); for pest or weed control at 62.5 g/ha: 62.5 g ai/ha, 100=total damage to plant, 0=no damage to plant, read-out: Barnyardgrass damage rating; for pest or weed control at 250 g/ha: 250 g ai/ha
Outline: (§1)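 One day after sowing, pots are treated with a spray of test compound formulated in acetone/water 50:50 plus 0.5% Tween 20, giving 15.625, 62.5 or 250 g/ha. Evaluation on a 0–100 damage scale follows 13 days of glasshouse growth.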

corn (Zea mays) [2] = assay: Test G Pre-Emergence Protocol; conditions: Zea mays, pre-emergence, 312 h, evaluated after 13 days; for plant injury at 15.625 g/ha: 15.625 g ai/ha; for plant injury at 15.625 g/ha / plant injury at 250 g/ha: read-out: Corn damage rating (100=total damage to plant; 0=no damage to plant); for plant injury at 62.5 g/ha: 62.5 g ai/ha, 100=total damage to plant, 0=no damage to plant, read-out: Corn damage rating; for plant injury at 250 g/ha: 250 g ai/ha
Outline: as §1

[3] = tested on: giant foxtail (Setaria faberi); assay: Test G Pre-Emergence Protocol; conditions: Setaria faberi, pre-emergence, 312 h, evaluated after 13 days; for pest or weed control at 15.625 g/ha: 15.625 g ai/ha; for pest or weed control at 15.625 g/ha / pest or weed control at 250 g/ha: read-out: Foxtail, Giant damage rating (100=total damage to plant; 0=no damage to plant); for pest or weed control at 62.5 g/ha: 62.5 g ai/ha, 100=total damage to plant, 0=no damage to plant, read-out: Foxtail, Giant damage rating; for pest or weed control at 250 g/ha: 250 g ai/ha
Outline: as §1

[4] = tested on: ivy-leaved morning glory (Ipomoea hederacea); assay: Test G Pre-Emergence Protocol; conditions: Ipomoea, pre-emergence, 312 h, evaluated after 13 days; for pest or weed control at 15.625 g/ha: 15.625 g ai/ha; for pest or weed control at 15.625 g/ha / pest or weed control at 250 g/ha: read-out: Morningglory, Ivy-leaved damage rating (100=total damage to plant; 0=no damage to plant); for pest or weed control at 62.5 g/ha: 62.5 g ai/ha, 100=total damage to plant, 0=no damage to plant, read-out: Morningglory, Ivy-leaved damage rating; for pest or weed control at 250 g/ha: 250 g ai/ha
Outline: as §1

[5] = tested on: redroot pigweed (Amaranthus retroflexus); assay: Test G Pre-Emergence Protocol; conditions: Amaranthus retroflexus, pre-emergence, 312 h, evaluated after 13 days; for pest or weed control at 15.625 g/ha: 15.625 g ai/ha; for pest or weed control at 15.625 g/ha / pest or weed control at 250 g/ha: read-out: Pigweed, Redroot damage rating (100=total damage to plant; 0=no damage to plant); for pest or weed control at 62.5 g/ha: 62.5 g ai/ha, 100=total damage to plant, 0=no damage to plant, read-out: Pigweed, Redroot damage rating; for pest or weed control at 250 g/ha: 250 g ai/ha
Outline: as §1

[6] = tested on: velvetleaf (Abutilon theophrasti); assay: Test G Pre-Emergence Protocol; conditions: Abutilon theophrasti, pre-emergence, 312 h, evaluated after 13 days; for pest or weed control at 15.625 g/ha: 15.625 g ai/ha; for pest or weed control at 15.625 g/ha / pest or weed control at 250 g/ha: read-out: Velvetleaf damage rating (100=total damage to plant; 0=no damage to plant); for pest or weed control at 62.5 g/ha: 62.5 g ai/ha, 100=total damage to plant, 0=no damage to plant, read-out: Velvetleaf damage rating; for pest or weed control at 250 g/ha: 250 g ai/ha
Outline: as §1

[7] = tested on: barnyardgrass (Echinochloa crus-galli); assay: Test G Post-Emergence Protocol; conditions: Echinochloa crus-galli, post-emergence, 312 h, read-out: Barnyardgrass damage rating; for pest or weed control at 15.625 g/ha: 15.625 g ai/ha, evaluated after 13 days (100=total damage to plant; 0=no damage to plant); for pest or weed control at 62.5 g/ha: 62.5 g ai/ha; for pest or weed control at 62.5 g/ha / pest or weed control at 250 g/ha: evaluated after 13 days, 100=total damage to plant, 0=no damage to plant; for pest or weed control at 250 g/ha: 250 g ai/ha
Outline: (§2)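 Sow in soil; grow 8 d (24/16 °C, 14 h light, 65% humidity); spray 15.625/62.5/250 g/ha in acetone:water 50:50 + 0.5% Tween 20; grow on, water twice daily; score damage 0–100 at 13 d.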

corn (Zea mays) [8] = assay: Test G Post-Emergence Protocol; conditions: Zea mays, post-emergence, 312 h, read-out: Corn damage rating; for plant injury at 15.625 g/ha: 15.625 g ai/ha, evaluated after 13 days (100=total damage to plant; 0=no damage to plant); for plant injury at 62.5 g/ha: 62.5 g ai/ha; for plant injury at 62.5 g/ha / plant injury at 250 g/ha: evaluated after 13 days, 100=total damage to plant, 0=no damage to plant; for plant injury at 250 g/ha: 250 g ai/ha
Outline: as §2

[9] = tested on: giant foxtail (Setaria faberi); assay: Test G Post-Emergence Protocol; conditions: Setaria faberi, post-emergence, 312 h, read-out: Foxtail, Giant damage rating; for pest or weed control at 15.625 g/ha: 15.625 g ai/ha, evaluated after 13 days (100=total damage to plant; 0=no damage to plant); for pest or weed control at 62.5 g/ha: 62.5 g ai/ha; for pest or weed control at 62.5 g/ha / pest or weed control at 250 g/ha: evaluated after 13 days, 100=total damage to plant, 0=no damage to plant; for pest or weed control at 250 g/ha: 250 g ai/ha
Outline: as §2

[10] = tested on: ivy-leaved morning glory (Ipomoea hederacea); assay: Test G Post-Emergence Protocol; conditions: Ipomoea, post-emergence, 312 h, read-out: Morningglory, Ivy-leaved damage rating; for pest or weed control at 15.625 g/ha: 15.625 g ai/ha, evaluated after 13 days (100=total damage to plant; 0=no damage to plant); for pest or weed control at 62.5 g/ha: 62.5 g ai/ha; for pest or weed control at 62.5 g/ha / pest or weed control at 250 g/ha: evaluated after 13 days, 100=total damage to plant, 0=no damage to plant; for pest or weed control at 250 g/ha: 250 g ai/ha
Outline: as §2

[11] = tested on: redroot pigweed (Amaranthus retroflexus); assay: Test G Post-Emergence Protocol; conditions: Amaranthus retroflexus, post-emergence, 312 h, read-out: Pigweed, Redroot damage rating; for pest or weed control at 15.625 g/ha: 15.625 g ai/ha, evaluated after 13 days (100=total damage to plant; 0=no damage to plant); for pest or weed control at 62.5 g/ha: 62.5 g ai/ha; for pest or weed control at 62.5 g/ha / pest or weed control at 250 g/ha: evaluated after 13 days, 100=total damage to plant, 0=no damage to plant; for pest or weed control at 250 g/ha: 250 g ai/ha
Outline: as §2

[12] = tested on: velvetleaf (Abutilon theophrasti); assay: Test G Post-Emergence Protocol; conditions: Abutilon theophrasti, post-emergence, 312 h, read-out: Velvetleaf damage rating; for pest or weed control at 15.625 g/ha: 15.625 g ai/ha, evaluated after 13 days (100=total damage to plant; 0=no damage to plant); for pest or weed control at 62.5 g/ha: 62.5 g ai/ha; for pest or weed control at 62.5 g/ha / pest or weed control at 250 g/ha: evaluated after 13 days, 100=total damage to plant, 0=no damage to plant; for pest or weed control at 250 g/ha: 250 g ai/ha
Outline: as §2

Row | SMILES | pest or weed control at 15.625 g/ha [1] [%] | pest or weed control at 62.5 g/ha [1] [%] | pest or weed control at 250 g/ha [1] [%] | plant injury at 15.625 g/ha (corn (Zea mays) [2]) [%] | plant injury at 62.5 g/ha (corn (Zea mays) [2]) [%] | plant injury at 250 g/ha (corn (Zea mays) [2]) [%] | pest or weed control at 15.625 g/ha [3] [%] | pest or weed control at 62.5 g/ha [3] [%] | pest or weed control at 250 g/ha [3] [%] | pest or weed control at 15.625 g/ha [4] [%] | pest or weed control at 62.5 g/ha [4] [%] | pest or weed control at 250 g/ha [4] [%] | pest or weed control at 15.625 g/ha [5] [%] | pest or weed control at 62.5 g/ha [5] [%] | pest or weed control at 250 g/ha [5] [%] | pest or weed control at 15.625 g/ha [6] [%] | pest or weed control at 62.5 g/ha [6] [%] | pest or weed control at 250 g/ha [6] [%] | pest or weed control at 15.625 g/ha [7] [%] | pest or weed control at 62.5 g/ha [7] [%] | also measured
1 | C=Cc1cccc([C@@H]2CN(C)C(=O)[C@H]2C(=O)Nc2cccc(F)c2F)c1 (racemic) [Compound 1762] | 70 | 80 | 80 | 0 | 30 | 80 | 70 | 80 | 80 | 0 | 10 | 10 | 0 | 10 | 20 | 0 | 0 | 10 | 10 | 50 | pest or weed control at 250 g/ha [7]: 80%; plant injury at 15.625 g/ha (corn (Zea mays) [8]): 20%; plant injury at 62.5 g/ha (corn (Zea mays) [8]): 30%; plant injury at 250 g/ha (corn (Zea mays) [8]): 80%; pest or weed control at 15.625 g/ha [9]: 60%; pest or weed control at 62.5 g/ha [9]: 70%; pest or weed control at 250 g/ha [9]: 80%; pest or weed control at 15.625 g/ha [10]: 30%; pest or weed control at 62.5 g/ha [10]: 60%; pest or weed control at 250 g/ha [10]: 70%; pest or weed control at 15.625 g/ha [11]: 20%; pest or weed control at 62.5 g/ha [11]: 0%; pest or weed control at 250 g/ha [11]: 10%; pest or weed control at 15.625 g/ha [12]: 10%; pest or weed control at 62.5 g/ha [12]: 0%; pest or weed control at 250 g/ha [12]: 70%
2 | CN1C[C@H](c2cccc(C(F)(F)F)c2)[C@@H](C(=O)Nc2c(O)cccc2F)C1=O (racemic) [Compound 1808] | 0 | 0 | 40 | 0 | 0 | 0 | 0 | 20 | 70 | 0 | 0 | 10 | 0 | 0 | 20 | 0 | 0 | 10 | 0 | 20 | pest or weed control at 250 g/ha [7]: 60%; plant injury at 15.625 g/ha (corn (Zea mays) [8]): 0%; plant injury at 62.5 g/ha (corn (Zea mays) [8]): 0%; plant injury at 250 g/ha (corn (Zea mays) [8]): 0%; pest or weed control at 15.625 g/ha [9]: 0%; pest or weed control at 62.5 g/ha [9]: 30%; pest or weed control at 250 g/ha [9]: 60%; pest or weed control at 15.625 g/ha [10]: 0%; pest or weed control at 62.5 g/ha [10]: 0%; pest or weed control at 250 g/ha [10]: 0%; pest or weed control at 15.625 g/ha [11]: 0%; pest or weed control at 62.5 g/ha [11]: 0%; pest or weed control at 250 g/ha [11]: 0%; pest or weed control at 15.625 g/ha [12]: 0%; pest or weed control at 62.5 g/ha [12]: 0%; pest or weed control at 250 g/ha [12]: 0%

Source: patent US12077503B2, “Substituted cyclic amides and their use as herbicides” (FMC CORPORATION, priority 2015, dated 2024)
